Experimental data: ChEMBL document CHEMBL5236636, “Synthesis, anticancer evaluation, and molecular docking studies of thiazolyl-pyrazoline derivatives” (Bioorg Med Chem Lett, 2023)
Active and inactive are the calls of the source. The rule behind the calls is not given here.

What was measured:
A549 [1] = test: Antiproliferative activity against human A549 cells incubated for 24 hrs by MTT assay; assay type: functional, cell-based; details: A549, 24 h
A-375 [2] = test: Antiproliferative activity against human A-375 cells incubated for 24 hrs by MTT assay; assay type: functional, cell-based; details: A-375, 24 h
[3] = Selectivity index, ratio of IC50 for rabbit articular chondrocytes to IC50 for human A-375
A549 [4] = test: Potency index, ratio of erlotinib IC50 to test compound IC50 for human A549 cells; assay type: functional
A-375 [5] = test: Antimetastatic activity against human A-375 cells assessed as reduction in MMP-2 expression at 100 uM preincubated with SNP for 3 hrs followed by compound addition and measured after 24 hrs by gelatin zymography; assay type: functional, cell-based
A549 [6] = test: Antimetastatic activity against human A549 cells assessed as reduction in MMP-9 expression at 100 uM preincubated with SNP for 3 hrs followed by compound addition and measured after 24 hrs by gelatin zymography; assay type: functional, cell-based
A-375 [7] = test: Potency index, ratio of erlotinib IC50 to test compound IC50 for human A-375 cells; assay type: functional
A-375 [8] = test: Antimetastatic activity against human A-375 cells assessed as reduction in MMP-9 expression at 100 uM preincubated with SNP for 3 hrs followed by compound addition and measured after 24 hrs by gelatin zymography; assay type: functional, cell-based
A-375 [9] = test: Antiinflammatory activity against human A-375 cells assessed as reduction in COX-2 expression at 100 uM preincubated with SNP for 3 hrs followed by compound addition and measured after 24 hrs by Western blot analysis; assay type: functional, cell-based
A549 [10] = test: Antimetastatic activity against human A549 cells assessed as reduction in MMP-2 expression at 100 uM preincubated with SNP for 3 hrs followed by compound addition and measured after 24 hrs by gelatin zymography; assay type: functional, cell-based
[11] = Cytotoxicity against rabbit articular chondrocytes incubated for 24 hrs by MTT assay; assay type: toxicity, cell-based, Oryctolagus cuniculus, Chondrocyte
A549 [12] = test: Antiinflammatory activity against human A549 cells assessed as reduction in COX-2 expression at 100 uM preincubated with SNP for 3 hrs followed by compound addition and measured after 24 hrs by Western blot analysis; assay type: functional, cell-based

SMILES	IC50 (A549 [1]) [µM]	IC50 (A-375 [2]) [µM]	Ratio IC50 [3]	Ratio IC50 (A549 [4])	Activity (A-375 [5])	Activity (A549 [6])	Ratio IC50 (A-375 [7])	Activity (A-375 [8])	Activity (A-375 [9])	Activity (A549 [10])	IC50 at 24 h [11] [µM]	Activity (A549 [12])
COc1ccc(C2=NN(c3nc(-c4ccc(Br)cc4)cs3)C(c3ccc(C)cc3)C2)cc1 (configuration not stated)	26.1	20.1	7.53		inactive	inactive		inactive		inactive	151	
COc1cc(C2CC(c3ccccc3)=NN2c2nc(-c3ccc(Br)cc3)cs2)ccc1OCc1ccccc1 (configuration not stated)	25.9	18.4	19.4		inactive	inactive		inactive	Active	inactive	357	Active
COc1ccc(C2=NN(c3nc(-c4ccc(Br)cc4)cs3)C(c3ccc(Br)cc3)C2)cc1 (configuration not stated)	45.7	31.6										
Clc1ccc(C2CC(c3ccccc3)=NN2c2nc(-c3ccc(Br)cc3)cs2)cc1 (configuration not stated)	52	42.8										
C#Cc1cccc(Nc2ncnc3cc(OCCOC)c(OCCOC)cc23)c1 [ERLOTINIB]	34.2	25.9	2.45								63.5	

The next lines start with results.

IC50 (A549 [1]) [µM]	IC50 (A-375 [2]) [µM]	Ratio IC50 [3]	SMILES	Ratio IC50 (A549 [4])	Activity (A-375 [5])	Activity (A549 [6])	Ratio IC50 (A-375 [7])	Activity (A-375 [8])	Activity (A-375 [9])	Activity (A549 [10])	IC50 at 24 h [11] [µM]	Activity (A549 [12])
126	103		Cc1ccc(C2CC(c3ccccc3)=NN2c2nc(-c3ccc(Br)cc3)cs2)cc1 (configuration not stated)									
37.4	40.5		COc1ccc(C2CC(c3ccccc3)=NN2c2nc(-c3ccc(Br)cc3)cs2)cc1 (configuration not stated)									
47.8	55.7		COc1ccc(C2=NN(c3nc(-c4ccc(Br)cc4)cs3)C(c3ccc(Cl)cc3)C2)cc1 (configuration not stated)									
20.3	16.1	9.04	COc1ccc(C2=NN(c3nc(-c4ccc(Br)cc4)cs3)C(c3ccc(F)cc3)C2)cc1 (configuration not stated)	1.7	inactive	inactive	1.7	inactive	Active	inactive	146	
51.8	45.1		COc1ccc(C2=NN(c3nc(-c4ccc(Br)cc4)cs3)C(c3ccc(OC)cc3)C2)cc1 (configuration not stated)									
27.3	20.6	21.1	COc1ccc(C2=NN(c3nc(-c4ccc(Br)cc4)cs3)C(c3ccc(OCc4ccccc4)c(OC)c3)C2)cc1 (configuration not stated)		inactive	inactive		inactive	Active	inactive	435	Active
74.2	97.5		Brc1ccc(-c2csc(N3N=C(c4ccccc4)CC3c3ccc(Br)cc3)n2)cc1 (configuration not stated)									
